Converted amounts (≈) assume the structure as drawn.

For the series the following is noted: buffer; pH 7.4; 200.0 µM.
What is called solubility (kinetic) is solubility judged after dilution from a stock solution rather than from solid. As to `O=C(COC(=O)c1ccco1)NC12CC3CC(CC(C3)C1)C2`, the kinetic solubility was found to be 2.2 µg/mL (≈ 7.25 µM).
For the compound `COC(=O)c1c(-c2c(Cl)cccc2Cl)noc1NC(=O)N(C)C`, the kinetic solubility came out at 49.3 µg/mL (≈ 138 µM).
`CCc1ccc(C(=O)Nc2ccc(C)c(NS(C)(=O)=O)c2)cc1` displayed a solubility (kinetic) of 39.7 µg/mL (≈ 119 µM).
`Cc1nn(CC(=O)NCCCN2CCCC2=O)c(C)c1[N+](=O)[O-]` had a solubility (kinetic) of more than 48.5 µg/mL.
`O=C(Nc1ccc2c(c1)OCCO2)c1cccc(Cl)c1` displayed a kinetic solubility of 36.9 µg/mL (≈ 127 µM).
In the case of `Cn1c(O)c(/C=N/N2CCOCC2)c(=O)n(-c2ccccc2)c1=S`, the kinetic solubility was more than 52 µg/mL.
Under `O=C1c2ccc([N+](=O)[O-])cc2C(=O)N1c1ccc([N+](=O)[O-])cn1` stands 41.3 µg/mL (≈ 131 µM); under `CC(Oc1ccccc1)C(=O)N1CCN=C1SCc1ccccc1` (centres undefined), 19.9 µg/mL (≈ 58.5 µM).
For the compound `O=S(=O)(NC(=S)NC1CCCCC1)c1ccc(Cl)cc1`, the kinetic solubility was more than 49.9 µg/mL.
The result for `O=C(COC(=O)/C=C/c1ccccc1Cl)NCc1ccco1` reads 14.4 µg/mL (≈ 45 µM); that for `COc1ccc(NC(=O)c2nn(C)cc2[N+](=O)[O-])cc1`, more than 41.4 µg/mL; that for `O=C(COC(=O)C1=COCCO1)Nc1ccc(Cl)cn1`, more than 44.8 µg/mL.
`COCCCNc1ccc([N+](=O)[O-])cc1C(=O)Nc1cccc(C)n1` yielded a solubility (kinetic) of 2.9 µg/mL (≈ 8.42 µM).
`Cc1cnc(C(=O)NCc2ccc(Cl)cc2Cl)cn1` returned a kinetic solubility of 7.7 µg/mL (≈ 26 µM). This solubility kinetic is about 2.7-fold higher than that of the compound before.
`O=C(COC(=O)COc1ccccc1[N+](=O)[O-])Nc1ccc2c(c1)OCO2` returned a kinetic solubility of 51.5 µg/mL (≈ 138 µM).
`COc1ccc(C2CC(C)(c3ccc(OC)cc3)Nc3ccccc3N2)cc1` (centres undefined) displayed a solubility (kinetic) of less than 0.4 µg/mL.
Under `O=C(NCC(=O)N1CCCC1)c1ccc(Br)o1` stands more than 45.2 µg/mL; under `CCOC(=O)c1c(NC(=O)COC(=O)c2cccnc2OCC)sc(C(=O)N(CC)CC)c1C`, 4.6 µg/mL (≈ 9.36 µM); under `Cc1cc(NC(=O)NC(=O)c2ccccc2F)no1`, 3 µg/mL (≈ 11.4 µM).
The compound `Cc1[nH]c(=O)c(C#N)c(C)c1CCC(=O)NCc1ccc(Cl)cc1` showed a kinetic solubility of more than 51.6 µg/mL.
Regarding `CN1CCN(C(=O)CSc2ccc(Cl)cc2)CC1`, the solubility (kinetic) was more than 42.7 µg/mL.
`O=C(NCc1ccccc1)NC12CC3CC(CC(C3)C1)C2` gave a solubility (kinetic) of 2.6 µg/mL (≈ 9.14 µM).
In the case of `CCCCc1c(C)nc2c(OC)cccc2c1SCC(=O)O`, the solubility (kinetic) was more than 47.9 µg/mL.
In the case of `CCOC(=O)Cn1nc(C)n(-c2ccc(F)cc2)c1=O`, the solubility (kinetic) is more than 41.9 µg/mL.
Under `CC(=O)C1=C(C)NC(=O)NC1c1ccc2c(c1)OCO2` (centres undefined) stands more than 41.1 µg/mL; under `CCc1ccc2nc(N)sc2c1`, more than 26.7 µg/mL.
For `CC1CCCCN1C(=S)NC(=O)c1ccccc1` (centres undefined), the solubility (kinetic) is more than 39.4 µg/mL.
Consider `O=C(CNC(=O)c1ccccc1F)NCCc1ccc(Cl)cc1`, for which the solubility (kinetic) was 47.5 µg/mL (≈ 142 µM).
Compound `Cc1ccc(NC(=S)Nc2ccc(F)cc2)cc1` registered a kinetic solubility of 11.1 µg/mL (≈ 42.6 µM).
Consider `CCCC(=O)Nc1ccc2c(c1)nc(CCN1CCCCC1)n2C`, for which the solubility (kinetic) is more than 49.3 µg/mL.
Regarding `Cc1ccc(C(=O)NCC(=O)Nc2ccc3c(c2)CCC3)cc1C`, the solubility (kinetic) amounted to 2.6 µg/mL (≈ 8.06 µM).
`Cc1cc(Br)ccc1S(=O)(=O)NCc1ccccc1` came in with a kinetic solubility of 32.5 µg/mL (≈ 95.5 µM).
Under `O=C(NCC1CCCO1)c1cccc2ccccc12` (centres undefined) stands more than 38.3 µg/mL; under `COc1ccc(C(CNC(=O)c2ccc3c(c2)CCC3)N(C)C)cc1` (centres undefined), more than 50.8 µg/mL.
`O=C(O)c1ccccc1Nc1ccc2nonc2c1[N+](=O)[O-]`: the solubility (kinetic) was more than 45 µg/mL.
`Cc1nonc1NC(=O)CSc1nnc(N)s1` came in with a kinetic solubility of more than 40.8 µg/mL.
With `CC(=O)Nc1ccc(NC(=O)C(c2ccccc2)c2ccccc2)cc1`, the solubility (kinetic) is 0.8 µg/mL (≈ 2.32 µM).
Regarding `CC12CCC(=O)N1C(C(=O)NCCc1ccccc1)CS2` (centres undefined), the solubility (kinetic) stood at 37.6 µg/mL (≈ 124 µM).
Under `CCCCN(CC)CCNC(=O)c1cc2c(=O)[nH]c3ccccc3c2n1C` stands 43.9 µg/mL (≈ 119 µM); under `Cc1ccc(-c2cc(C(=O)N3CCOCC3)no2)cc1`, more than 40.8 µg/mL; under `Cc1ccc(C)c(OCC(=O)Nc2ccccc2C(=O)NC2CC2)c1`, 0.9 µg/mL (≈ 2.66 µM).
The result for `O=C(NCc1ccc2c(c1)OCO2)NC12CC3CC(CC(C3)C1)C2` reads 1.3 µg/mL (≈ 3.96 µM).
Under `Cn1c(=O)c2[nH]cnc2n(C)c1=O` stands more than 27 µg/mL.
In turn, `CCN(C(=O)CN1C(=S)NC(C)(C)CC1C)c1ccc(C)c(C)c1` (centres undefined) returned a kinetic solubility of more than 52.1 µg/mL.
With `Cc1ccc(S(=O)(=O)N(CCO)Cc2ccccc2)cc1`, the kinetic solubility is more than 45.8 µg/mL.
`COc1ccc2cc(Br)ccc2c1CC(=O)NCCCN1CCOCC1` showed a kinetic solubility of more than 63.2 µg/mL.
Take `O=[N+]([O-])c1ccc(NS(=O)(=O)c2cccc3cccnc23)cc1`: the kinetic solubility was found to be 1.9 µg/mL (≈ 5.77 µM).
Take `CCC(C)[C@H](NC(=O)Nc1ccc2c(c1)OCCO2)C(=O)OC` (some centres undefined): the kinetic solubility is more than 48.4 µg/mL.
Under `Cc1nn(C)cc1C(C)Nc1nc2nonc2nc1N1CCCCC1` (centres undefined) stands more than 51.4 µg/mL; under `COc1cc(/C=C(\C#N)C(=O)Nc2ccccn2)ccc1O`, 5.9 µg/mL (≈ 20 µM).
The result for `COC(CN(C)C(C(=O)NC1CCCCC1)c1ccccc1)OC` (centres undefined) reads more than 50.2 µg/mL.
In turn, `CCc1noc(C)c1C(=O)NCCc1ccc(F)cc1` displayed a kinetic solubility of more than 41.4 µg/mL.
`CCN(CC)S(=O)(=O)c1ccc2oc(SCC(=O)NC3CC3)nc2c1` returned a solubility (kinetic) of more than 57.5 µg/mL.
`C[C@H](NC(=O)c1ccccc1Cl)C(=O)Nc1ccccc1F` gave a kinetic solubility of more than 48.1 µg/mL.
Turning to `O=S(=O)(Nc1cccc(S(=O)(=O)N2CCCC2)c1)c1cccs1`, the kinetic solubility came out at 51.9 µg/mL (≈ 139 µM).
The result for `O=C(NCCOc1ccc(Cl)cc1)c1ccco1` reads 25.9 µg/mL (≈ 97.5 µM).
Consider `Cc1cc(S(=O)(=O)Nc2c(C)nn(C)c2C)c(Cl)cc1Cl`, for which the kinetic solubility is more than 52.2 µg/mL.
In turn, `COC(=O)c1c(NC(=O)C2CC2)sc(C(=O)Nc2ccccc2)c1C` showed a solubility (kinetic) of 1.7 µg/mL (≈ 4.74 µM).
The compound `Cc1cccc(NC(=O)c2cc3cc([N+](=O)[O-])ccc3s2)n1` showed a solubility (kinetic) of less than 0.2 µg/mL.
`Cc1cccc(C(=O)NCCNC(=O)c2cccnc2)c1` gave a kinetic solubility of 37.5 µg/mL (≈ 132 µM).
`Cc1[nH]c2ccccc2c1C(C[N+](=O)[O-])c1cccc(O)c1` (centres undefined) yielded a solubility (kinetic) of 40.1 µg/mL (≈ 135 µM).
The result for `CCNS(=O)(=O)c1ccc(NC(=O)Nc2ccc3c(c2)OCO3)cc1` reads 12.1 µg/mL (≈ 33.3 µM); that for `FC(F)(F)c1cccc(NC(=S)N2CCCCCC2)c1`, 22.3 µg/mL (≈ 73.8 µM).
`COc1ccc(NC(=O)c2ccccc2Oc2ccccc2)cc1` registered a kinetic solubility of less than 0.7 µg/mL.
For `CN(C(=O)CCl)C1CCCc2ccccc21` (centres undefined), the solubility (kinetic) is 32.1 µg/mL (≈ 135 µM).
`Cn1c(=O)[nH]c(=O)c2c1[nH]c(=S)n2Cc1ccc(Cl)cc1`: the solubility (kinetic) came out at 42.3 µg/mL (≈ 131 µM).
Compound `COc1ccccc1OCCn1c(SCC(N)=O)nc2ccccc21` came in with a kinetic solubility of 45.4 µg/mL (≈ 127 µM).
The result for `CCC(=O)NC1CC2CCCC(C1)N2Cc1ccc(C)cc1` (centres undefined) reads more than 45.1 µg/mL; that for `CCCNc1nc(OC)nc(N2CC3CC(C2)c2cccc(=O)n2C3)n1` (centres undefined), 50.6 µg/mL (≈ 142 µM); that for `Nc1cc(Nc2ccccc2)ccn1.O=P(O)(O)O`, more than 42.5 µg/mL.
`COc1cc(CN2CC=C(c3ccc(F)cc3)CC2)cc(OC)c1` displayed a solubility (kinetic) of 10.4 µg/mL (≈ 31.8 µM).
`COc1ccc(NC(=S)NC(=O)C2CCCCC2)cc1` came in with a solubility (kinetic) of less than 0.3 µg/mL.
On to `Cc1n(Cc2ccccc2)c2cc([N+](=O)[O-])ccc2[n+]1Cc1ccccc1.[Cl-]`, for which the kinetic solubility was more than 59.1 µg/mL.
`Cc1cc(C)cc(NC(=O)C(=S)NCc2ccccc2)c1` yielded a kinetic solubility of less than 0.3 µg/mL.
In turn, `CCc1noc(C)c1C(=O)NCCc1ccc(Cl)cc1` came in with a solubility (kinetic) of more than 43.9 µg/mL.
`O=c1c([N+](=O)[O-])cccn1Cc1cccc(Br)c1` returned a solubility (kinetic) of more than 46.4 µg/mL.
`CCc1ccccc1NC(=O)c1ccc2c(c1)CCN2S(C)(=O)=O` came in with a kinetic solubility of 0.8 µg/mL (≈ 2.32 µM).
Compound `Cc1cc(/C=C\c2ccccc2)nc2ccccc12` showed a kinetic solubility of less than 0.5 µg/mL.
The compound `O=C(CSc1ccc(F)cc1)NC12CC3CC(CC(C3)C1)C2` gave a kinetic solubility of 1.1 µg/mL (≈ 3.44 µM).
`C=CCON/C(CCC)=C1\C(=O)CC(C)(C)CC1=NC`: the kinetic solubility worked out at 34.9 µg/mL (≈ 125 µM).
In turn, `O=C(c1ccco1)N1CCN(c2ccc([N+](=O)[O-])cn2)CC1` displayed a kinetic solubility of 18.3 µg/mL (≈ 60.5 µM).
Under `O=S(=O)(NC1CC1)c1ccccc1` stands 28.3 µg/mL (≈ 143 µM).
`c1ccc(CCCN2CCN(c3ccccc3)CC2)cc1` yielded a kinetic solubility of 24.3 µg/mL (≈ 86.7 µM).
Consider `O=C(O)C(Cc1c[nH]c2ccccc12)N1C(=O)c2ccccc2C1=O` (centres undefined), for which the kinetic solubility is 41.4 µg/mL (≈ 124 µM).
As to `CC(C)Oc1cccc(C(=O)C2CCCN(C(=O)c3ccsc3)C2)c1` (centres undefined), the kinetic solubility turned out to be 44.8 µg/mL (≈ 125 µM).
The compound `Cc1ccc(C(C)C)c(OCCN2CCc3ccccc3C2)c1.Cl` yielded a solubility (kinetic) of less than 0.7 µg/mL.
With `CNC(=O)c1cc(S(=O)(=O)NCc2ccncc2)ccc1OC`, the solubility (kinetic) was more than 50.3 µg/mL.
The result for `Cc1c(C(=O)N2CCC2)oc2ccc(Br)cc12` reads 19.5 µg/mL (≈ 66.3 µM); that for `Cc1csc(CN(C)C(=O)C2CCC(=O)N(CCN(C)C)C2)n1` (centres undefined), 32.9 µg/mL (≈ 97.2 µM); that for `Cc1cc(NC(=O)Cn2cnc3sc(C)c(C)c3c2=O)no1`, 17.3 µg/mL (≈ 54.3 µM).
For the compound `Cc1ccc(C)n1-c1ccccc1N1CCCCC1`, the solubility (kinetic) stood at 6.4 µg/mL (≈ 25.2 µM).
In the case of `Cc1occc1C(=O)N1CCN(c2ccc([N+](=O)[O-])cc2)CC1`, the solubility (kinetic) turned out to be 35.4 µg/mL (≈ 112 µM).
Under `Cc1ccc(N=C2NC(=O)C(CO)(CO)S2)cc1` stands 27.1 µg/mL (≈ 102 µM); under `Nn1c(Nc2ccc(Cl)cc2)nncc1=O`, more than 35.6 µg/mL; under `Cc1nn2c(-c3ccncc3)ccnc2c1Cl`, more than 36.7 µg/mL.
For the compound `O=S(=O)(NCc1ccco1)c1ccc2ccccc2c1`, the solubility (kinetic) came to 11.3 µg/mL (≈ 39.3 µM).
The result for `Cc1ccc2[nH]cc(S(=O)(=O)c3ccc(C(C)C)cc3)c(=O)c2c1` reads less than 0.7 µg/mL; that for `CCCOc1ccc(CN2CCOCC2)cc1OC.Cl`, more than 45.3 µg/mL.
As for `CCN(CC)C(=O)CN1C(=O)/C(=C/c2ccccc2)SC1=S`, the kinetic solubility amounted to 2.5 µg/mL (≈ 7.47 µM).
`Cc1cc(C)nc(/N=C(\N)Nc2ccc(S(N)(=O)=O)cc2)n1` returned a solubility (kinetic) of 44.6 µg/mL (≈ 139 µM).
For `O=C(Nc1ccccc1)c1ccco1`, the kinetic solubility is more than 28.1 µg/mL.
`O=C(Nc1cccnc1Cl)c1cc2ccccc2o1` had a solubility (kinetic) of 7.3 µg/mL (≈ 26.8 µM).
`Brc1cnc2ccccc2c1N1CCCCC1` came in with a solubility (kinetic) of 1.2 µg/mL (≈ 4.12 µM).
The result for `Cc1[nH]c2ccccc2c1C(=O)CN1CCCC(C)C1` (centres undefined) reads 40.5 µg/mL (≈ 150 µM).
